Columns and labels:
Format in all cases: in vivo
compound-treated mice = assay: Neuropharmacological assay (SmartCube): behavioral activity signature and minimal effective dose; conditions: for AD: ADHD (probability of activity signature) / AG: analgesic (probability of activity signature) / AX: anxiolytic (probability of activity signature) / CE: cognitive enhancer (probability of activity signature) / DP: anti-depressant (probability of activity signature) / MS: mood stabilizer (probability of activity signature) / PS: anti-psychotic (probability of activity signature) / SD: sedative hypnotic (probability of activity signature) / UN: uncharacterized CNS activity (probability of activity signature): i.p. 15 min before test, most efficacious dose(s)
Procedure, shortened: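 Video-recorded behavior is compared algorithmically against a reference-compound database, yielding class probabilities (best dose reported). Compounds given i.p. in NMP/PEG/propylene glycol 15 min pre-test at 3 doses; potency as MED, the dose (mpk, range usually 0.3–30) reaching ≥50% total activity.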

Male C57Bl/6J mice [1] = assay: Marble burying test; set-up: key: −: No reduction in number of marbles buried; +: Significant reduction in number of marbles buried (P < 0.05 vs vehicle)
Procedure, shortened: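 Mice (n=10/group) dosed i.p. or p.o. with compound or water 30 min before a 30-min session in cages with twenty marbles; marbles at least two-thirds covered scored buried. Distance traveled tracked by overhead camera for locomotion; fewer marbles buried than vehicle indicates anxiolytic-like effect.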

Male C57Bl/6J mice [2] = assay: Amphetamine induced hyperlocomotion assay; set-up: key: #: Significant increase in total distance traveled (P < 0.05 vs vehicle + AMPH group); −: No change in total distance traveled; Significant decrease in total distance traveled (P < 0.05 vs vehicle + AMPH group)
Procedure: Psychostimulants such as amphetamine (AMPH) are frequently used to induce or mimic a manic-like or psychotic-like state. AMPH administration to rodents increases horizontal locomotion, vertical rearing and repetitive stereotyped behaviors, and typical antipsychotic drugs, such as haloperidol, can reduce these behaviors. The antimanic/antipsychotic-like effects of test compounds were evaluated in male C57Bl/6J mice from Jackson Laboratories Mice were acclimatized to the experimental room for at least 1 hour prior to testing. The mice (n=10 per group) were administered vehicle or test compound orally by gavage (10 mL/kg injection volume) and placed individually in the novel open field (OF) chambers (Med Associates) for 30 minutes of baseline activity measurement. Mice were then injected with either water or AMPH (4 mg/kg, i.p., 10 mL/kg) and placed back in the same individual OF chambers for a 60-minute testing session during which the effects of test compounds on stimulant-induced behaviors (total distance traveled, rearing and stereotypy) were measured. A reduction in total distance traveled relative to the vehicle+AMPH condition indicates an antimanic/antipsychotic drug-like response.

[3] = MED = dose having 50% or more total activity

Structure (SMILES) | minimal effective dose (compound-treated mice; Mus musculus, ip, MED = dose having 50% or more total activity, read-out: Potency: minimal effective dose (MED)) | AD: ADHD (probability of activity signature) (compound-treated mice) | AG: analgesic (probability of activity signature) (compound-treated mice) | AX: anxiolytic (probability of activity signature) (compound-treated mice) | CE: cognitive enhancer (probability of activity signature) (compound-treated mice) | DP: anti-depressant (probability of activity signature) (compound-treated mice) | MS: mood stabilizer (probability of activity signature) (compound-treated mice) | PS: anti-psychotic (probability of activity signature) (compound-treated mice) | SD: sedative hypnotic (probability of activity signature) (compound-treated mice) | UN: uncharacterized CNS activity (probability of activity signature) (compound-treated mice) | Marbles Buried (Male C57Bl/6J mice [1]; 3 mg/kg (p.o.)) | Marbles Buried (Male C57Bl/6J mice [1]; 10 mg/kg (p.o.)) | Marbles Buried (Male C57Bl/6J mice [1]; 30 mg/kg (p.o.)) | Total Distance Traveled (Male C57Bl/6J mice [2]; 3 mg/kg PO Compound + AMPH) | Total Distance Traveled (Male C57Bl/6J mice [2]; 10 mg/kg PO Compound + AMPH) | Total Distance Traveled (Male C57Bl/6J mice [2]; 30 mg/kg PO Compound + AMPH) | Potency: minimal effective dose (MED) (compound-treated mice; [3])
N[C@@H]1COCc2ccccc21 (single isomer, unassigned) [Example 111] | 3 to 10 mg/kg | + (LOQ ≤ + <5%) | ++ (5% ≤ ++ <25%) | ++ (5% ≤ ++ <25%) | ++ (5% ≤ ++ <25%) | ++ (5% ≤ ++ <25%) | + (LOQ ≤ + <5%) | ++ (5% ≤ ++ <25%) | + (LOQ ≤ + <5%) | +++ (25% ≤ +++ <50%) | − | + | + | # | − | + | 
N[C@H]1COCc2ccc(F)cc21 (single isomer, unassigned) [Example 114] |  | + (LOQ ≤ + <5%) | ++ (5% ≤ ++ <25%) | ++ (5% ≤ ++ <25%) | ++ (5% ≤ ++ <25%) | ++ (5% ≤ ++ <25%) | + (LOQ ≤ + <5%) | ++ (5% ≤ ++ <25%) | + (LOQ ≤ + <5%) | +++ (25% ≤ +++ <50%) | + | + | + |  | − | + | C (>10 to ≤30 mpk)
N[C@@H]1COCc2ccc3ccccc3c21 (single isomer, unassigned) [Example 117] |  | + (LOQ ≤ + <5%) | ++ (5% ≤ ++ <25%) | ++ (5% ≤ ++ <25%) | ++ (5% ≤ ++ <25%) | ++ (5% ≤ ++ <25%) | ++ (5% ≤ ++ <25%) | +++ (25% ≤ +++ <50%) | + (LOQ ≤ + <5%) | + (LOQ ≤ + <5%) | + | + | + |  | − | + | B (>3 to 10 mpk)
N[C@H]1COCc2ccc3ccccc3c21 (single isomer, unassigned) [Example 118] |  | + (LOQ ≤ + <5%) | ++ (5% ≤ ++ <25%) | ++ (5% ≤ ++ <25%) | ++ (5% ≤ ++ <25%) | +++ (25% ≤ +++ <50%) | + (LOQ ≤ + <5%) | ++ (5% ≤ ++ <25%) | ++ (5% ≤ ++ <25%) | + (LOQ ≤ + <5%) |  | + | + |  | − | + | B (>3 to 10 mpk)
Cc1ccc2c(c1)[C@H](N)COC2 [Example 123] |  | + (LOQ ≤ + <5%) | ++ (5% ≤ ++ <25%) | ++ (5% ≤ ++ <25%) | + (LOQ ≤ + <5%) | ++ (5% ≤ ++ <25%) | + (LOQ ≤ + <5%) | ++ (5% ≤ ++ <25%) | ++ (5% ≤ ++ <25%) | +++ (25% ≤ +++ <50%) |  | + | + |  | − | + | A (≤3 mpk)
Cc1ccc2c(c1)[C@@H](N)COC2 [Example 124] |  | + (LOQ ≤ + <5%) | ++ (5% ≤ ++ <25%) | +++ (25% ≤ +++ <50%) | ++ (5% ≤ ++ <25%) | ++ (5% ≤ ++ <25%) | + (LOQ ≤ + <5%) | ++ (5% ≤ ++ <25%) | ++ (5% ≤ ++ <25%) | +++ (25% ≤ +++ <50%) |  | + | + |  | − | + | B (>3 to 10 mpk)

Source: patent US11077090B2, “Compounds and compositions and uses thereof” (Sunovion Pharmaceuticals Inc., priority 2016, dated 2021)
